In patent US10189796B2, “[4-(1,3,3-trimethyl-2-oxo-3,4-dihydro-1H-quinoxalin-7-yl)phenoxy]ethyloxy compound or salt thereof” (SANTEN PHARMACEUTICAL CO., LTD., priority 2015, dated 2019):

How the values were obtained:
[1] = test system: MCP-1 production in human monocyte cell (THP-1); assay: MCP-1 production inhibitory action evaluation test (LPS stimulation, ELISA); type: cell-based; settings: THP-1, LPS, 18 hours
Procedure: In order to evaluate an action of the present compound as a GR agonist, an MCP-1 production inhibitory action in human monocyte cell after stimulation by LPS was investigated. For the measurement of the MCP-1 production amount in the sample, the ELISA method (manufactured by R&D Systems, Cat No. DCP00) was used, and a procedure was carried out according to the protocol attached thereto. Hereinafter, the specific method will be described.
LPS solution: After LPS was dissolved in PBS(−), the solution was diluted with 10% FBS-containing RPMI 1640 to prepare an LPS solution with a 40 μg/mL concentration.
After the test compound was dissolved in dimethylsulfoxide, the solution was diluted with an RPMI medium to prepare 400 μM of a test compound solution. The solution was diluted with a 4% dimethylsulfoxide-containing RPMI 1640 medium to prepare 40 μM of a test compound solution.
Used cells: human monocyte cell (THP-1) (ATCC)
• 1) Subcultured THP-1 was recovered and centrifuged at 1,100 rpm for 5 minutes to give a cell sediment. • 2) An RPMI medium (RPMI 1640 containing 10% FBS, 100 U/mL of penicillin, 100 μg/mL of streptomycin, 55 μM of 2-Mercaptoethanol, 10 ng/mL of human EGF, and 40 μg/mL of gentamicin) was added. • 3) The above suspension was seeded in a culture flask and cultured in a CO2 incubator (temperature: 37° C., CO2 concentration: 5%). The cells continued to subculture according to this method were used for the test. (Test Method and Measurement Method) • 1) The subcultured THP-1 was recovered and the cells were each seeded at 1.9×10^5 cells/0.19 mL/well in a 96-well round bottom culture plate. • 2) The test compound solution was added with each 5 μL/well and cultured for 2 hours. • 3) LPS solution was added with each 5 μL/well. • 4) The sample to which 4% dimethylsulfoxide-containing RPMI medium was added with each 5 μL/well in place of each test compound solution, and 10% FBS-RPMI 1640 was added with each 5 μL/well in place of the LPS solution was made a negative control. • 5) The sample to 4% dimethylsulfoxide-containing RPMI medium was added with each 5 μL/well in place of each test compound solution was made a positive control. • 6) After completion of 18 hours cultivation, the supernatant was recovered and the amount of MCP-1 released in the supernatant was measured by using an ELISA Kit. • 7) The MCP-1 production inhibitory ratio was calculated according to the following calculation formula. (Calculation of MCP-1 Production Inhibitory Ratio)
MCP-1 production inhibitory ratio (%) was calculated by the following formula. […]

[2] = test system: paracentesis induced intraocular inflammation model of rabbits; assay: Anterior eye inflammation model evaluation test; type: in vivo, rabbit; settings: 3% (W/V) suspension, eye dropped 50 μL four times; 120 minutes after primary puncture
Procedure: In order to evaluate an anti-inflammatory action of the present compound on anterior eye inflammation, an inhibitory effect on a number of infiltrated cells into aqueous humor in a paracentesis induced intraocular inflammation model of rabbits was investigated. Incidentally, this effect was evaluated by calculating an inhibitory ratio from a number of infiltrated cells into aqueous humor in the base agent administered group (control group) and a number of infiltrated cells into aqueous humor in the test compound administered group.
A base agent containing a general additive(s) was added to the test compound to prepare a test compound suspension with 3% (W/V).
• 1) Male JW rabbits underwent local anesthesia with 0.4% oxybuprocaine hydrochloride (trade name: Benoxil ophthalmic solution 0.4%), and about 0.1 mL of anterior aqueous humor was collected by using a syringe for tuberculin so as not to touch the iris to carry out primary puncture, whereby an inflammatory response was induced. • 2) Thirty minutes before the primary puncture, heparin was intravenously administered so as to be about 50 unit/kg. • 3) The test compound suspension was eye dropped (instillation dose: 50 μL/time) to both eyes in total four times, 210 minutes before, 60 minutes before, 15 minutes after, and 90 minutes after the primary puncture. […]

[3] = test system: ovalbumin actively sensitized allergic conjunctivitis model of rabbits; assay: Allergic conjunctivitis model evaluation test; type: in vivo, rabbit; settings: eye drop 50 μL four times a day for 4 days plus once, 0.5 hour after challenge
Procedure: In order to evaluate an anti-allergic action of the present compounds on allergic conjunctivitis, an inhibitory effect on hyperemia in an ovalbumin actively sensitized allergic conjunctivitis model of rabbits was investigated. Incidentally, this effect was evaluated by calculating an inhibitory ratio from the score of the base agent administered group (control group) and the score of the test compound administered group.
A base agent containing a general additive(s) was added to the test compound to prepare test compound suspensions with 1% (WN) and 3% (W/V).
By using male JW rabbits, ovalbumin (200 μg/mL/physiological saline solution) adsorbed on aluminum hydroxide gel was injected 200 μL per eye into bulbar conjunctiva of both eyes of rabbits, respectively, to perform active sensitization.
After 14 days from sensitization or later, the test compound suspension was eye-dropped four times a day for 4 days, and then, at the next day, it was eye-dropped (instillation dose: 50 μL/time) once to both eyes. Incidentally, the base agent was similarly eye-dropped to the base agent administered group (control group).
One hour after the final eye dropping of the test compound suspension, a physiological saline solution containing 0.02% (W/V) of ovalbumin was administered from rabbit ear vein at a dose of 1.5 mL per 1 kg of rabbit to induce allergic conjunctivitis.
After 0.5 hour of the challenge, the degree of hyperemia symptoms of both ocular conjunctiva of rabbits was evaluated according to the following criteria, and the average value of the total of these scores was calculated. […]

Compound | MCP-1 production inhibitory ratio (% of 1 μM) [1] | inhibitory ratio (%) of the number of infiltrated cells into aqueous humor [2] | Eye congestion inhibitory ratio (%) ([3]; 1% suspension) | Eye congestion inhibitory ratio (%) ([3]; 3% suspension)
COc1cc(OC[C@H](C)OC(=O)CN(C)C)ccc1-c1ccc2c(c1COc1cc(F)ccc1C)N(C)C(=O)C(C)(C)N2 [Compound 11-1, (S)-7-[4-[2-(N,N-dimethylaminoacetoxy)propyl]oxy-2-methoxyphenyl]-8-(5-fluoro-2-methylphenoxymethyl)-1,3,3-trimethyl-3,4-dihydro-1H-quinoxalin-2-one] | 88% | 37% | 44% | 
COc1cc(OC[C@@H](O)CC#N)ccc1-c1ccc2c(c1COc1cc(F)ccc1C)N(C)C(=O)C(C)(C)N2 [Compound 5-2, (S)-7-[4-(3-cyano-2-hydroxypropyl)oxy-2-methoxyphenyl]-8-(5-fluoro-2-methyl-phenoxymethyl)-1,3,3-trimethyl-3,4-dihydro-1H-quinoxalin-2-one] |  |  |  | 35%
COCOc1ccc(-c2ccc3c(c2COc2cc(F)ccc2C)N(C)C(=O)C(C)(C)N3)c(OC)c1 [Control compound F, 8-(5-fluoro-2-methylphenoxymethyl)-7-(2-methoxy-4-methoxymethoxyphenyl)-1,3,3-trimethyl-3,4-dihydro-1H-quinoxalin-2-one, reference compound] | 27% |  |  | 
COc1ccc(-c2ccc3c(c2COc2cc(F)ccc2C)N(C)C(=O)C(C)(C)N3)c(OC)c1 [Control compound E, 7-(2,4-dimethoxyphenyl)-8-(5-fluoro-2-methyl-phenoxymethyl)-1,3,3-trimethyl-3,4-dihydro-1H-quinoxalin-2-one, reference compound] | 40% |  |  | 
COc1ccc(O)cc1-c1ccc2c(c1COc1cc(F)ccc1C)N(C)C(=O)C(C)(C)N2 [Control compound C, 8-(5-fluoro-2-methylphenoxymethyl)-7-(5-hydroxy-2-methoxyphenyl)-1,3,3-trimethyl-3,4-dihydro-1H-quinoxalin-2-one] | 65% |  |  | 
